Assays:
Experiment in all cases: relative viability (nuclei count vs DMSO), 5 days (fraction); higher = more cells survive
[1] = system: COR-L23
Method in brief: (§1)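 Five library-drug doses in √10 steps were combined with a fixed anchor-drug dose, or a single drug was given alone, by pin tool to lung cancer cell lines in 1536-well plates the day after seeding. Nuclei were stained and counted after 5 days. Relative viability is the nuclei count in treated wells over that in vehicle wells, taken as the median of duplicate plates.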

[2] = system: NCI-H1793
Method in brief: as §1

[3] = system: EMC-BAC-2
Method in brief: as §1

[4] = system: NCI-H23
Method in brief: as §1

[5] = system: NCI-H358
Method in brief: as §1

[6] = system: NCI-H1437
Method in brief: as §1

[7] = system: NCI-H2342
Method in brief: as §1

[8] = system: NCI-H1915
Method in brief: as §1

[9] = system: SK-MES-1
Method in brief: as §1

[10] = system: NCI-H2023
Method in brief: as §1

[11] = system: NCI-H2009
Method in brief: as §1

[12] = system: NCI-H650
Method in brief: as §1

[13] = system: NCI-H1792
Method in brief: as §1

[14] = system: HCC-366
Method in brief: as §1

[15] = system: 201T
Method in brief: as §1

[16] = system: COR-L 105
Method in brief: as §1

[17] = system: LC-2-ad
Method in brief: as §1

[18] = system: HCC-15
Method in brief: as §1

[19] = system: PC-14
Method in brief: as §1

[20] = system: NCI-H1755
Method in brief: as §1

[21] = system: NCI-H1395
Method in brief: as §1

[22] = system: NCI-H2347
Method in brief: as §1

Structure (SMILES): Cc1cn(-c2cc(NC(=O)c3ccc(C)c(Nc4nccc(-c5cccnc5)n4)c3)cc(C(F)(F)F)c2)cn1 [Nilotinib] + N=C(N)NC(=N)NCCc1ccccc1 [Phenformin] (partner 250 µM)
- relative viability ([1]; first compound 0.001 µM): 0.448
- relative viability ([1]; first compound 0.003162 µM): 0.52
- relative viability ([1]; first compound 0.01 µM): 0.591
- relative viability ([1]; first compound 0.03162 µM): 0.42
- relative viability ([1]; first compound 0.1 µM): 0.45
- relative viability ([2]; first compound 0.001 µM): 0.36
- relative viability ([2]; first compound 0.003162 µM): 0.363
- relative viability ([2]; first compound 0.01 µM): 0.357
- relative viability ([2]; first compound 0.03162 µM): 0.196
- relative viability ([2]; first compound 0.1 µM): 0.232
- relative viability ([3]; first compound 0.001 µM): 0.474
- relative viability ([3]; first compound 0.003162 µM): 0.553
- relative viability ([3]; first compound 0.01 µM): 0.491
- relative viability ([3]; first compound 0.03162 µM): 0.44
- relative viability ([3]; first compound 0.1 µM): 0.484
- relative viability ([4]; first compound 0.001 µM): 0.706
- relative viability ([4]; first compound 0.003162 µM): 0.58
- relative viability ([4]; first compound 0.01 µM): 0.891
- relative viability ([4]; first compound 0.03162 µM): 0.624
- relative viability ([4]; first compound 0.1 µM): 0.594
- relative viability ([5]; first compound 0.001 µM): 0.317
- relative viability ([5]; first compound 0.003162 µM): 0.453
- relative viability ([5]; first compound 0.01 µM): 0.394
- relative viability ([5]; first compound 0.03162 µM): 0.259
- relative viability ([5]; first compound 0.1 µM): 0.217
- relative viability ([6]; first compound 0.001 µM): 0.325
- relative viability ([6]; first compound 0.003162 µM): 0.335
- relative viability ([6]; first compound 0.01 µM): 0.331
- relative viability ([6]; first compound 0.03162 µM): 0.23
- relative viability ([6]; first compound 0.1 µM): 0.224
- relative viability ([7]; first compound 0.001 µM): 0.534
- relative viability ([7]; first compound 0.003162 µM): 0.614
- relative viability ([7]; first compound 0.01 µM): 0.556
- relative viability ([7]; first compound 0.03162 µM): 0.523
- relative viability ([7]; first compound 0.1 µM): 0.504
- relative viability ([8]; first compound 0.001 µM): 0.372
- relative viability ([8]; first compound 0.003162 µM): 0.394
- relative viability ([8]; first compound 0.01 µM): 0.413
- relative viability ([8]; first compound 0.03162 µM): 0.372
- relative viability ([8]; first compound 0.1 µM): 0.381
- relative viability ([9]; first compound 0.001 µM): 0.614
- relative viability ([9]; first compound 0.003162 µM): 0.734
- relative viability ([9]; first compound 0.01 µM): 0.74
- relative viability ([9]; first compound 0.03162 µM): 0.566
- relative viability ([9]; first compound 0.1 µM): 0.554
- relative viability ([10]; first compound 0.001 µM): 0.461
- relative viability ([10]; first compound 0.003162 µM): 0.455
- relative viability ([10]; first compound 0.01 µM): 0.571
- relative viability ([10]; first compound 0.03162 µM): 0.325
- relative viability ([10]; first compound 0.1 µM): 0.361
- relative viability ([11]; first compound 0.001 µM): 0.417
- relative viability ([11]; first compound 0.003162 µM): 0.464
- relative viability ([11]; first compound 0.01 µM): 0.463
- relative viability ([11]; first compound 0.03162 µM): 0.387
- relative viability ([11]; first compound 0.1 µM): 0.338
- relative viability ([12]; first compound 0.001 µM): 0.444
- relative viability ([12]; first compound 0.003162 µM): 0.428
- relative viability ([12]; first compound 0.01 µM): 0.447
- relative viability ([12]; first compound 0.03162 µM): 0.38
- relative viability ([12]; first compound 0.1 µM): 0.397
- relative viability ([13]; first compound 0.001 µM): 0.277
- relative viability ([13]; first compound 0.003162 µM): 0.318
- relative viability ([13]; first compound 0.01 µM): 0.164
- relative viability ([13]; first compound 0.03162 µM): 0.203
- relative viability ([13]; first compound 0.1 µM): 0.259
- relative viability ([14]; first compound 0.001 µM): 0.623
- relative viability ([14]; first compound 0.003162 µM): 0.584
- relative viability ([14]; first compound 0.01 µM): 0.655
- relative viability ([14]; first compound 0.03162 µM): 0.257
- relative viability ([14]; first compound 0.1 µM): 0.555
- relative viability ([15]; first compound 0.003162 µM): 0.48
- relative viability ([15]; first compound 0.01 µM): 0.454
- relative viability ([15]; first compound 0.03162 µM): 0.477
- relative viability ([15]; first compound 0.1 µM): 0.491
- relative viability ([16]; first compound 0.001 µM): 0.428
- relative viability ([16]; first compound 0.003162 µM): 0.47
- relative viability ([16]; first compound 0.01 µM): 0.581
- relative viability ([16]; first compound 0.03162 µM): 0.409
- relative viability ([16]; first compound 0.1 µM): 0.438
- relative viability ([17]; first compound 0.001 µM): 0.647
- relative viability ([17]; first compound 0.003162 µM): 0.659
- relative viability ([17]; first compound 0.01 µM): 0.557
- relative viability ([17]; first compound 0.03162 µM): 0.609
- relative viability ([17]; first compound 0.1 µM): 0.562
- relative viability ([18]; first compound 0.001 µM): 0.436
- relative viability ([18]; first compound 0.003162 µM): 0.598
- relative viability ([18]; first compound 0.01 µM): 0.508
- relative viability ([18]; first compound 0.03162 µM): 0.331
- relative viability ([18]; first compound 0.1 µM): 0.404
- relative viability ([19]; first compound 0.001 µM): 0.573
- relative viability ([19]; first compound 0.003162 µM): 0.538
- relative viability ([19]; first compound 0.01 µM): 0.546
- relative viability ([19]; first compound 0.03162 µM): 0.459
- relative viability ([19]; first compound 0.1 µM): 0.542
- relative viability ([20]; first compound 0.001 µM): 0.589
- relative viability ([20]; first compound 0.003162 µM): 0.616
- relative viability ([20]; first compound 0.01 µM): 0.564
- relative viability ([20]; first compound 0.03162 µM): 0.534
- relative viability ([20]; first compound 0.1 µM): 0.486
- relative viability ([21]; first compound 0.001 µM): 0.453
- relative viability ([21]; first compound 0.003162 µM): 0.403
- relative viability ([21]; first compound 0.01 µM): 0.49
- relative viability ([21]; first compound 0.03162 µM): 0.43
- relative viability ([21]; first compound 0.1 µM): 0.415
- relative viability ([22]; first compound 0.001 µM): 0.386
- relative viability ([22]; first compound 0.003162 µM): 0.308
- relative viability ([22]; first compound 0.01 µM): 0.551
- relative viability ([22]; first compound 0.03162 µM): 0.277
- relative viability ([22]; first compound 0.1 µM): 0.327
